For 67 molecules, half-life results are on record in PubChem BioAssay AID1508591.

The term half-life denotes the time in which the quantity being followed falls by half. Higher therefore signals slow loss.

For this series the following is noted: rat; liver microsomes; pH 7.4; 15.0 min; 1.0 µM. (In general: Liver microsomes are a subcellular fraction often used to study metabolism.)
In turn, `O=S(=O)(c1ccc(Cl)cc1)c1ccccn1` came in with a half-life above 30 min.

`CCOc1ccc(CCNC(=O)c2ccnn2Cc2cccc(C)c2)cc1OCC` yielded a half-life of 1.5 min.

Molecule `CC1=C(C(=O)NC2CCCCC2)C(c2ccccc2Br)N=C(Nc2nc3ccccc3o2)N1` (configuration not stated) registered a half-life of 7.4 min.

Regarding `Cc1nc2nc(NC(=O)c3ccc(C(C)(C)C)cc3)[nH]n2c(=O)c1Cl`, the half-life was determined as 21 min.

The molecule `Cc1noc(C)c1C(=O)N1CCC2(CCCN(C(c3ccccc3)c3ccccc3)C2)CC1` yielded a half-life of 1.7 min.

On to `O=C(Nc1cc(C(F)(F)F)ccc1N1CCOCC1)c1n[nH]c(=O)c2ccccc12`, for which the half-life is above 30 min.

As to `CN(C)[C@@H]1CCN(c2cccc(Nc3nn4c(=O)c5ccccc5nc4s3)c2)C1`, the half-life is above 30 min.

As to `CN(Cc1cccs1)c1nc(-c2ccccc2C(F)(F)F)nc2ccccc12`, the half-life turned out to be 1.98 min.

The molecule `CC1CCC(n2c3cnccc3c3cnc(Nc4ccc5c(n4)CCN(C(=O)CO)C5)nc32)CC1` (configuration not stated) displayed a half-life of 23.5 min.

With `CN(C(=O)COC(=O)c1csc(NCc2ccccc2)n1)c1ccccc1`, the half-life came to 1.4 min.

`CC1=C[C@@H](CNCc2cccnc2)[C@H](C(C)C)C[C@H]1Cc1nnc(-c2ccc([N+](=O)[O-])cc2)o1` showed a half-life of 2.13 min.

As to `O=C1CCCC2=C1C1(CCCC1)N=C(Nc1nc3cc(Br)ccc3o1)N2`, the half-life was found to be 4.9 min.

`Cc1cc(-c2cc3c(nc2-c2ccccc2)nc(C(=O)NCCN(C)C)n3C)ccn1`: the half-life was above 30 min.

Regarding `C[C@@]1(c2ncncc2F)NC(=O)c2cc(-c3cn[nH]c3)ccc21`, the half-life is above 30 min.

The molecule `NC(=O)C1CCN(c2ncc(-c3cccc(F)c3)s2)CC1` showed a half-life of 9.48 min.

With `O=[S+]([O-])(Nc1ccc(N2CCNCC2)cc1)c1ccc(NCc2ccc(Br)cc2O)cc1`, the half-life was above 30 min.

The molecule `Cc1noc(C)c1CN1CCNc2cc(Nc3ccccc3)ncc2C1` yielded a half-life of 5.25 min.

Turning to `CNc1sc(-c2cccc3ccccc23)nc1C#N`, the half-life turned out to be 12.9 min.

Turning to `COc1cc2c(c(OC)c1OC)-c1ccc(SC)c(=O)cc1C(N)CC2` (configuration not stated), the half-life is 9.88 min.

In the case of `Cc1noc(C)c1-c1ccc2ncnc(N3CCC(C(=O)O)CC3)c2c1`, the half-life was above 30 min.

`NC(=O)C1CCN(c2ncc(Br)cn2)CC1`: the half-life was above 30 min.

With `CCn1c(C(=O)NCCc2ccc(OC)cc2)cc2sccc21`, the half-life was determined as 1.9 min.

For the molecule `C[C@@H]1COCCN1c1cc(C2(S(C)(=N)=O)CC2)nc(-c2ccnc3[nH]ccc23)n1` (some centres not stated), the half-life is above 30 min.

Regarding `COc1cc2c(Nc3ccc(Br)cc3F)ncnc2cc1OCC1CCN(C)CC1`, the half-life is above 30 min.

With `Oc1ccc(CNc2ccccc2Br)c2cccnc12`, the half-life is 4.46 min.

`Cc1onc(-c2ccccc2)c1C(=O)Nc1nnc(COc2ccc(Cl)cc2)s1` displayed a half-life above 30 min.

`Fc1ccc(Nc2nc(-n3ccnc3)nc3ccccc23)cc1F` came in with a half-life above 30 min.

Molecule `CCOc1ccc(C(C)CNC(=O)c2cc3sccc3n2Cc2ccccc2)cc1OCC` (configuration not stated) yielded a half-life of 2.5 min.

`O=C(Nc1ccc(C(=O)Nc2nccs2)cc1)c1ccc2ccccc2c1` registered a half-life of 23 min.

Molecule `Clc1cccc(Nc2nc(-c3ccncc3)nc3ccccc23)c1` displayed a half-life of 7.7 min.

`COc1cccc(CNC(=O)CCCn2nc(C)c3c(C)n(-c4ccc(C)cc4)nc3c2=O)c1OC` showed a half-life of 1.07 min.

With `O=S(=O)(Nc1nccs1)c1ccc(NCc2ccc(Br)cc2O)cc1`, the half-life amounted to 5.4 min.

`Cc1nc(-c2ccco2)cc([C@H]2CN3CC[C@H]2C[C@@H]3CNC(=O)NC2CCCCC2)n1` registered a half-life of 29.6 min.

Take `Cc1noc(C)c1-c1cc2c(cc(C)n2C)c(-c2cnn(C)c2)n1`: the half-life was above 30 min.

Take `Fc1cnc(-c2ccccc2C(F)F)nc1NCC1CCN(c2cnccn2)C1` (configuration not stated): the half-life amounted to 2.8 min.

`Cc1cn2nc(-c3nc(C4CCCN(C(=O)c5ccccc5)C4)no3)cc2c(=O)[nH]1` (configuration not stated) had a half-life of 13.6 min.

`O=C(NCC1(c2nc(-c3ccccc3)cs2)CCOCC1)c1cccc(-c2noc(C(F)(F)F)n2)c1` yielded a half-life of 2.92 min.

As to `COc1ccc(CNc2ccc(S(=O)(=O)Nc3nccs3)cc2)c(O)c1`, the half-life was 3.9 min.

`CC(C)(N)CNC(=O)CC1CCC2(CC1)OOC1(O2)C2CC3CC(C2)CC1C3` (configuration not stated) showed a half-life above 30 min.

In turn, `COC(=O)CNC(=O)c1nc(-c2ccc([S+](C)(=O)[O-])cc2)c2cnccn12` showed a half-life above 30 min.

For the molecule `Fc1cccc(CNc2nc(-c3ccccc3C(F)(F)F)nc3ccccc23)c1`, the half-life worked out at 2.55 min.

`O=C(Nc1ccc(S(=O)(=O)Nc2nc(-c3ccccc3)cs2)cc1)c1ccc2ccccc2c1`: the half-life is above 30 min.

The molecule `O=C(Cn1ccn2nc3c(c2c1=O)CCCCC3)Nc1ccc2c(c1)OCO2` yielded a half-life of 6.81 min.

Consider `Fc1ccc(CNc2nc(-c3ccccc3C(F)(F)F)nc3ccccc23)cc1`, for which the half-life was 19.8 min.

In turn, `CCC(CC)c1cc([C@H]2CN3CC[C@H]2C[C@@H]3CNS(=O)(=O)c2cccs2)nc(-c2ccncc2)n1` had a half-life above 30 min.

The molecule `CN(C)c1cccc(-c2cnc(N3CCC(c4ncc[nH]4)CC3)s2)c1` returned a half-life of 4.63 min.

For `O=S(=O)(Nc1nccs1)c1ccc(NCc2cccc(Cl)c2O)cc1`, the half-life is 14 min.

`Cc1cnc(-c2ccccc2C(F)F)nc1NCc1ccc(-n2ccnn2)cc1` yielded a half-life of 21 min.

Molecule `O=C1CCCC2=C1C1(CCCC1)N=C(Nc1nc3cc(Cl)ccc3o1)N2` yielded a half-life of 2.6 min.

On to `NC1CCN(c2nc(-c3ccc(Br)cc3)cs2)CC1`, for which the half-life is above 30 min.

`Ic1ccccc1CNC1C2CCN(CC2)C1C(c1ccccc1)c1ccccc1` (configuration not stated): the half-life came to 8.51 min.

With `C[C@H]1CN(C(=O)Nc2ccc(F)cc2F)C[C@@H]1c1nc(-c2ccccc2)no1`, the half-life is above 30 min.

Molecule `CCOc1ccc(CCNC(=O)c2cc3sccc3n2Cc2ccccn2)cc1OCC` displayed a half-life of 1.5 min.

Regarding `CCCCN(CC)CCCNC(=O)c1ccc2c(c1)N(Cc1ccc(C)cc1)C(=O)c1ccccc1S2`, the half-life was found to be 4.06 min.

Consider `Cc1ccnc(NC(=S)N2CCN(c3ccccc3C(F)(F)F)CC2)c1`, for which the half-life came to 2 min.

Turning to `N[C@@H](Cc1cc(Br)c(O)c(Br)c1)C(=O)O`, the half-life was above 30 min.

`Cc1ccc(-n2ncc3c(Nc4cccc(C(=O)O)c4)ncnc32)cc1` came in with a half-life above 30 min.

Consider `NC(=O)NCC(=O)N[C@H]1CC[C@H](Nc2nccc(-c3ccncc3)n2)C1`, for which the half-life was above 30 min.

`Cc1cc(N=Nc2ccc(S(=O)(=O)Nc3ccccn3)cc2)c(N)cc1O` returned a half-life above 30 min.

Consider `Cc1cnc(-c2ccccc2C(C)C)nc1NCC1CCN(c2cccnc2)CC1`, for which the half-life amounted to 3.9 min.

Turning to `CN(C)CCCN1c2ccc(O)cc2Sc2ccc(Cl)cc21`, the half-life is 10.7 min.

For `COc1ccc(-c2nc3ccccc3c(=O)n2Cc2ccco2)cc1COc1ccc(NC(C)=O)cc1`, the half-life stood at 2.17 min.

Turning to `Cc1cc(C)c(C(=O)Nc2cccc([S+](=O)([O-])N3CCCC3)c2)[nH]1`, the half-life turned out to be 6.5 min.

With `COC(=O)c1ccnc(NC(=S)N2CCN(c3cccc(C(F)(F)F)c3)CC2)c1`, the half-life was above 30 min.

In the case of `NC(=O)C1CCN(c2nc(-c3ccc(F)cc3)cs2)CC1`, the half-life worked out at 7.09 min.

Molecule `CC(C)c1ccccc1-c1ncc(F)c(NCC2CCN(c3cnccn3)C2)n1` (configuration not stated) yielded a half-life of 2.2 min.

In turn, `Fc1ccc(F)c(Nc2nc(-c3ccncc3)nc3ccccc23)c1` gave a half-life of 10 min.
